ChEMBL document CHEMBL1201862, “PubChem BioAssay data set” (2004)
The source made the active and inactive calls.

Key:
[1] = target: T1, Bcl-2-related protein A1 (Mus musculus, UniProt Q07440); assay: Bfl-1 inhibitors blocking BH3 peptide binding, confirmation, biochemical, TR-FRET, mouse Bfl-1 (AID 621);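 note: TR-FRET binding of GST-Bfl-1 to FITC-labelled Bid peptide via terbium antibody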
T1 sequence (Q07440 whole entry): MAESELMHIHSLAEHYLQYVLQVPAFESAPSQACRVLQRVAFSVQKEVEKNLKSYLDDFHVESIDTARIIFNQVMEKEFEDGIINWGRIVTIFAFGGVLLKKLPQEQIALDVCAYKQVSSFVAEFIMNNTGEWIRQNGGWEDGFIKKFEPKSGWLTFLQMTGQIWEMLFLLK

[2] = target: T1, Bcl-2-related protein A1; assay: Bfl-1 binding inhibitors, SAR follow-up, biochemical, fluorescence polarization (AID 1070)
[3] = target: Glyceraldehyde-3-phosphate dehydrogenase (Homo sapiens, UniProt P04406)
[4] = target: Protein-tyrosine kinase 2-beta (Homo sapiens, UniProt Q14289);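 note: potency of inhibitors of PYK2 kinase phosphorylation of poly-GT substrate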
[5] = target: T2, NADPH oxidase 1 (Homo sapiens, UniProt Q9Y5S8); assay: Late-stage luminescence-based cell-based dose response assay to identify inhibitors of NADPH oxidase 1 (NOX1): Synthesized analogs.; type: functional
T2 sequence (Q9Y5S8 whole entry): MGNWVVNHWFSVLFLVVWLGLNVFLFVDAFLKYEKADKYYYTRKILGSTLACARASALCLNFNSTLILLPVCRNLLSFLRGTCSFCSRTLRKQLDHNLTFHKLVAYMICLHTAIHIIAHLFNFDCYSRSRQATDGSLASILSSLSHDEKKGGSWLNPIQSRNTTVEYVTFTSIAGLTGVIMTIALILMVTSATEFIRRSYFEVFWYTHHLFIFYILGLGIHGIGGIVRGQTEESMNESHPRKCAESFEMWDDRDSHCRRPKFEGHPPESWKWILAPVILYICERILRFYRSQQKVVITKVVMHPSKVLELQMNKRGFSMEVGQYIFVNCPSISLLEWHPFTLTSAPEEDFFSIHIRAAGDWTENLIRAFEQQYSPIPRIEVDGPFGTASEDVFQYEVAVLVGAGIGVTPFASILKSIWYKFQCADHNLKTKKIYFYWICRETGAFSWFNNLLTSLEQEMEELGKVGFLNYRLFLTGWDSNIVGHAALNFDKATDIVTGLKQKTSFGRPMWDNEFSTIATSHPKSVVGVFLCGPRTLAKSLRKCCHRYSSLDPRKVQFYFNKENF

[6] = target: Potassium voltage-gated channel subfamily KQT member 2 (Rattus norvegicus, UniProt O88943, W236L); assay: KCNQ2 channel potentiators, dose response, mechanism study for KCNQ2 potentiator project, cell-based, automated electrophysiology (AID 2603); type: functional
[7] = Luminescence Cell-Based Dose Confirmation to Identify Activators of 5'UTR Stem-Loop Driven Alpha-Synuclein mRNA Translation in H4 Neuroglioblastoma Cells. [Related pubchem assays: 1829 (Project Summary), 1814 (Primary HTS)]; type: functional
[8] = system: H4; assay: Luminescence Cell-Based Dose Response HTS to Identify Activators of 5'UTR Stem-Loop Driven Prion Protein mRNA Translation in H4 Neuroglioblastoma Cells. [Related pubchem assays: 1829 (Project Summary), 1814 (Primary HTS)]; type: functional; conditions: Homo sapiens
[9] = Luminescence Cell-Based Dose Response to Identify Activators of Luciferase Translation or Activity in H4-C Neuroglioblastoma Cells. [Related pubchem assays: 1829 (Project Summary), 1814 (Primary HTS)]; type: functional
[10] = Luminescence Cell-Based Dose Response HTS to Identify Activators of Luciferase Translation or Activity in H4 […] Cells. [Related pubchem assays: 1829 (Project Summary), 1814 (Primary HTS)]; type: functional
[11] = Luminescence Cell-Based Dose Response to Identify Activators of 5'UTR Stem-Loop Driven Prion Protein mRNA Translation in H4-C Neuroglioblastoma Cells. [Related pubchem assays: 1829 (Project Summary), 1814 (Primary HTS)]; type: functional
[12] = target: T3, E3 ubiquitin-protein ligase XIAP (Homo sapiens, UniProt P98170); assay: Counter Screen using XIAP-Bir3 for Chemical Antagonists of Bir1/2 domains of IAP-family anti-apoptotic proteins. [Related pubchem assays (depositor defined):AID1018, AID1449, AID1514, AID1638, AID1749, AID1750, AID488957, AID488963]
[13] = target: T3, E3 ubiquitin-protein ligase XIAP; assay: XIAP antagonists, biochemical, IAP family, fluorescence polarization (AID 1018); type: functional
[14] = target: Bcl-2-like protein 1 (Homo sapiens, UniProt Q07817); assay: BCL-XL inhibitors, dose response, selectivity assay for MCL1 inhibitor project, biochemical, fluorescence polarization, 1536-well (AID 2218)
[15] = target: T4, Caspase-6 (Homo sapiens, UniProt P55212); assay: human caspase-6 inhibitors, dose response, biochemical, VEID-R110 fluorescence, cherry-pick (AID 720632)
T4 sequence (P55212 whole entry): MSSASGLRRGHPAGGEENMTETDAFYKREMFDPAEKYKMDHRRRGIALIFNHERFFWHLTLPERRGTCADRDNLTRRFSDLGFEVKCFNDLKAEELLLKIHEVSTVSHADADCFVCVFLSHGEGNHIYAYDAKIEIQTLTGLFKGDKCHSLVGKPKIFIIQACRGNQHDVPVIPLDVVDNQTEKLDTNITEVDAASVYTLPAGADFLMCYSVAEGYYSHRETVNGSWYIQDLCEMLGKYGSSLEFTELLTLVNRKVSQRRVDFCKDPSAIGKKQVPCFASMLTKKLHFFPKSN

[16] = target: T5, Induced myeloid leukemia cell differentiation protein Mcl-1 (Homo sapiens, UniProt Q07820); assay: MCL1-BIM BH3 interaction inhibitors, dose response, biochemical, fluorescence polarization, BIM-BH3 peptide, 1536-well (AID 2217)
[17] = target: Caspase-7 (Homo sapiens, UniProt P55210); assay: human caspase-7 inhibitors, dose response, selectivity assay for caspase-6 inhibitor project, biochemical, DEVD-R110 fluorescence, cherry-pick (AID 743295)
[18] = target: Caspase-8 (Homo sapiens, UniProt Q14790); assay: caspase-8 inhibition counter-screen, dose response, selectivity assay for caspase-6 inhibitor project, biochemical, Z-IETD-R110 fluorescence, cherry-picked samples (AID 743294)
[19] = target: T6, Carboxy-terminal domain RNA polymerase II polypeptide A small phosphatase 1 (Homo sapiens, UniProt Q9GZU7); assay: inhibitors of CTDSP1, concentration-response testing, biochemical assay, absorbance-based, actives from ultra-high-throughput screening (AID 540297); type: functional
T6 sequence (Q9GZU7 whole entry): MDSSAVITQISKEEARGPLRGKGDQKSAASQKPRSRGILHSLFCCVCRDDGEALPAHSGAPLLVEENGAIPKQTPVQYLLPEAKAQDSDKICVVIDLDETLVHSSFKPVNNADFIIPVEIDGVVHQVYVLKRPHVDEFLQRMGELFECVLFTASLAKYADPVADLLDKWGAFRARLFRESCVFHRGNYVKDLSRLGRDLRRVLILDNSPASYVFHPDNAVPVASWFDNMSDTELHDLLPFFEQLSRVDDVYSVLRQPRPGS

[20] = target: Peroxisome proliferator-activated receptor gamma/Nuclear receptor corepressor 2 (Homo sapiens, UniProt P37231+Q9Y618); assay: Counterscreen for NR2E3 inverse agonists: TR-FRET-based biochemical high throughput dose response assay to identify inverse agonists of the interaction between peroxisome proliferator-activated receptor gamma (PPARg) and nuclear receptor co-repressor 2 (NCOR2).; type: functional
[21] = target: T7, Small ubiquitin-related modifier 1 (Homo sapiens, UniProt P63165); assay: inhibitors of SUMO1 peptide binding, dose response, biochemical, fluorescence polarization, uHTS hits (AID 624382); type: functional; conditions: read-out: IC50_Mean
[22] = target: T7, Small ubiquitin-related modifier 1; assay: inhibitors of SUMO1 partner interactions, dose response, biochemical, FRET (AID 624383); type: functional; conditions: read-out: IC50_Mean
[23] = target: Photoreceptor-specific nuclear receptor (Homo sapiens, UniProt Q9Y5X4); assay: NR2E3 inverse agonists, dose response, biochemical, TR-FRET (AID 463256); type: functional
[24] = inhibitors of intracellular T. cruzi replication, confirmation, NIH3T3 host cells, beta-gal luminescence (AID 2044); type: functional, cell-based;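 note: intracellular parasites grown in NIH/3T3 mouse fibroblasts as host cells; luminescent beta-galactosidase reporter signal from transgenic T. cruzi replicating inside host cells; inhibitors lower the luminescence signal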
[25] = cytotoxicity toward NIH3T3 fibroblasts, dose response, counter-screen, cell-based, ATP luminescence, mouse fibroblasts (AID 2010); type: functional;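 note: cells exposed to compound for about 90 hours before reading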
[26] = cells; type: functional
[27] = cells
[28] = Luminescent dose response cell-based high throughput screening assay for inhibitors of the Janus kinase 2 mutant JAK2V617F. [Related pubchem assays: 1446 (Primary screen.), 1521 (Confirmation assay.), 1486 (Counter screen.)]; type: functional
[29] = cytotoxicity in KRAS-transformed pancreatic duct cells, primary screen, cell-based, fluorescence, HTS (AID 431); type: functional; conditions: Homo sapiens;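 note: cell line used: HPDE-C7K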
[30] = cytotoxicity in HPDE-C7 cells, cell-based, fluorescence, HTS (AID 430); type: functional; conditions: Homo sapiens
[31] = target: Sphingosine 1-phosphate receptor 2 (Homo sapiens, UniProt O95136); assay: Dose Response Cell Based Assay for Agonists of the S1P2 Receptor of Purchased Analogues. [Related pubchem assays: 729, 843, 854, 736 ]; type: functional
[32] = target: Oxytocin receptor (Homo sapiens, UniProt P30559); assay: Fluorescence-based cell-based high throughput dose response assay for potentiators of Oxytocin Receptor (OXTR). [Related pubchem assays: 434985 (Confirmation screen (OXTR potentiators in triplicate)), 2481 (Summary (OXTR potentiators)), 2445 (Primary screen (OXTR potentiators in singlicate))]; type: functional
[33] = target: T5, Induced myeloid leukemia cell differentiation protein Mcl-1; type: functional
[34] = system: Vero; assay: West Nile virus antiviral activity, cell-based, CPE readout (AID 1621); type: functional; conditions: Chlorocebus sabaeus
[35] = Luminescence Cell-Based Dose Retest to Confirm Inhibitors of Cancer Stem Cells. [Related pubchem assays (depositor defined):AID2717, AID2721]; type: functional; conditions: Homo sapiens
[36] = system: Vero; assay: host cell cytotoxicity of antiviral hits, dose response, cytotoxicity control for West Nile virus antiviral project, secondary assay (AID 1650); type: functional; conditions: Chlorocebus sabaeus

T5 sequence (Q07820 whole entry): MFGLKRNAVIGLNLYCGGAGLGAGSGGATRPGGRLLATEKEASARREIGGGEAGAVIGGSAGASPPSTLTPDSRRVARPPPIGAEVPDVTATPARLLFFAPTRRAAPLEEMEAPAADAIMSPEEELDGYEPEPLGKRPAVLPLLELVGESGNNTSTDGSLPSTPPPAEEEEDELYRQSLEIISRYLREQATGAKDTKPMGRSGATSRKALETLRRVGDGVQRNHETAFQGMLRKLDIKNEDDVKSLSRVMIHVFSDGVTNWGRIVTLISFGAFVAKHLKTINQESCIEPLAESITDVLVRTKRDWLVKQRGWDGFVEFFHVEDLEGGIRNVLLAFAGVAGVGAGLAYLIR
T3 sequence (P98170 whole entry): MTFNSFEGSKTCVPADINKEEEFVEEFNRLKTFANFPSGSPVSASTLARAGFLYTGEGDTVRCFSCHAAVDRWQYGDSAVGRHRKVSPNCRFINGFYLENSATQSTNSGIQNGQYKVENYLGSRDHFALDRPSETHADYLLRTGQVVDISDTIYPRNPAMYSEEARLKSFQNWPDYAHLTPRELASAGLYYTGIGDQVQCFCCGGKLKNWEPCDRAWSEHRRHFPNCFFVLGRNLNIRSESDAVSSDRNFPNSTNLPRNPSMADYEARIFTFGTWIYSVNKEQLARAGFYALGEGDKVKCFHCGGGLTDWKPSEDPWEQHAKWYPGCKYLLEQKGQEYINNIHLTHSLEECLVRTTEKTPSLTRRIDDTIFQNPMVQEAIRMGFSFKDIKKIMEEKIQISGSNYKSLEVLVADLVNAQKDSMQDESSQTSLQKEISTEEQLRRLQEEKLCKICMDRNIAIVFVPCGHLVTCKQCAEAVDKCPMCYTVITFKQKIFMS
T7 sequence (P63165 whole entry): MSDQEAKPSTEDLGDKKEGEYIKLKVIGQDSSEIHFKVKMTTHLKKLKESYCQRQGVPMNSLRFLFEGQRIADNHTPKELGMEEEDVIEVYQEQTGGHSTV
Sphingosine 1-phosphate receptor 2, sequence (O95136 whole entry): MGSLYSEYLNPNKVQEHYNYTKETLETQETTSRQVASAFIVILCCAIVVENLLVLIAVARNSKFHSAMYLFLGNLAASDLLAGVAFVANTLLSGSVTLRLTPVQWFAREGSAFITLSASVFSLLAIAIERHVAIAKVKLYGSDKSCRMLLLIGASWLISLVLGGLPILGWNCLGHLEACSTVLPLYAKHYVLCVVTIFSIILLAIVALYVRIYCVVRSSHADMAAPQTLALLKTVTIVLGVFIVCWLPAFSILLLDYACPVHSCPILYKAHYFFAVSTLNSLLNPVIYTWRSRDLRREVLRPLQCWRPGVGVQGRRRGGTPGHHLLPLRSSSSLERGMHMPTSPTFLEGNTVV
Bcl-2-like protein 1, sequence (Q07817 whole entry): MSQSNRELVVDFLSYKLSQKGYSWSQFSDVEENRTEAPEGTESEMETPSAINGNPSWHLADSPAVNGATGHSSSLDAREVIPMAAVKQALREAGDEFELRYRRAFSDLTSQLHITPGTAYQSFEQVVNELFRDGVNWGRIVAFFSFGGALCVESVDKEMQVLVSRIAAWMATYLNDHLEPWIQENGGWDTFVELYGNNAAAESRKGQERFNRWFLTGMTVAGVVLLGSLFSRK
Peroxisome proliferator-activated receptor gamma/Nuclear receptor corepressor 2, sequence (P37231 whole entry): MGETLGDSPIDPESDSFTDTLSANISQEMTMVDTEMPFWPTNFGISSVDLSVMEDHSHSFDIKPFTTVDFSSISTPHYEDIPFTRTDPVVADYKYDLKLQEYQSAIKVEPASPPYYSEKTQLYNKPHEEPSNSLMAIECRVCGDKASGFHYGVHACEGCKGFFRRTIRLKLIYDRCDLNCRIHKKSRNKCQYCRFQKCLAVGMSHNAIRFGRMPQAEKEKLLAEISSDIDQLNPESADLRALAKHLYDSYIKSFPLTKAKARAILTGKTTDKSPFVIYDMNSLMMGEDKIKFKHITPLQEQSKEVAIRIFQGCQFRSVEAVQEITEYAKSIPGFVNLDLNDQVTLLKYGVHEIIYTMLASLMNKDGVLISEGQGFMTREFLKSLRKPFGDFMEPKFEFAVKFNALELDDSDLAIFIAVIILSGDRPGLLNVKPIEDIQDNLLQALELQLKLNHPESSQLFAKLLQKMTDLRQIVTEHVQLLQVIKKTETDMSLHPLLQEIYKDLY
Peroxisome proliferator-activated receptor gamma/Nuclear receptor corepressor 2, sequence (Q9Y618 whole entry): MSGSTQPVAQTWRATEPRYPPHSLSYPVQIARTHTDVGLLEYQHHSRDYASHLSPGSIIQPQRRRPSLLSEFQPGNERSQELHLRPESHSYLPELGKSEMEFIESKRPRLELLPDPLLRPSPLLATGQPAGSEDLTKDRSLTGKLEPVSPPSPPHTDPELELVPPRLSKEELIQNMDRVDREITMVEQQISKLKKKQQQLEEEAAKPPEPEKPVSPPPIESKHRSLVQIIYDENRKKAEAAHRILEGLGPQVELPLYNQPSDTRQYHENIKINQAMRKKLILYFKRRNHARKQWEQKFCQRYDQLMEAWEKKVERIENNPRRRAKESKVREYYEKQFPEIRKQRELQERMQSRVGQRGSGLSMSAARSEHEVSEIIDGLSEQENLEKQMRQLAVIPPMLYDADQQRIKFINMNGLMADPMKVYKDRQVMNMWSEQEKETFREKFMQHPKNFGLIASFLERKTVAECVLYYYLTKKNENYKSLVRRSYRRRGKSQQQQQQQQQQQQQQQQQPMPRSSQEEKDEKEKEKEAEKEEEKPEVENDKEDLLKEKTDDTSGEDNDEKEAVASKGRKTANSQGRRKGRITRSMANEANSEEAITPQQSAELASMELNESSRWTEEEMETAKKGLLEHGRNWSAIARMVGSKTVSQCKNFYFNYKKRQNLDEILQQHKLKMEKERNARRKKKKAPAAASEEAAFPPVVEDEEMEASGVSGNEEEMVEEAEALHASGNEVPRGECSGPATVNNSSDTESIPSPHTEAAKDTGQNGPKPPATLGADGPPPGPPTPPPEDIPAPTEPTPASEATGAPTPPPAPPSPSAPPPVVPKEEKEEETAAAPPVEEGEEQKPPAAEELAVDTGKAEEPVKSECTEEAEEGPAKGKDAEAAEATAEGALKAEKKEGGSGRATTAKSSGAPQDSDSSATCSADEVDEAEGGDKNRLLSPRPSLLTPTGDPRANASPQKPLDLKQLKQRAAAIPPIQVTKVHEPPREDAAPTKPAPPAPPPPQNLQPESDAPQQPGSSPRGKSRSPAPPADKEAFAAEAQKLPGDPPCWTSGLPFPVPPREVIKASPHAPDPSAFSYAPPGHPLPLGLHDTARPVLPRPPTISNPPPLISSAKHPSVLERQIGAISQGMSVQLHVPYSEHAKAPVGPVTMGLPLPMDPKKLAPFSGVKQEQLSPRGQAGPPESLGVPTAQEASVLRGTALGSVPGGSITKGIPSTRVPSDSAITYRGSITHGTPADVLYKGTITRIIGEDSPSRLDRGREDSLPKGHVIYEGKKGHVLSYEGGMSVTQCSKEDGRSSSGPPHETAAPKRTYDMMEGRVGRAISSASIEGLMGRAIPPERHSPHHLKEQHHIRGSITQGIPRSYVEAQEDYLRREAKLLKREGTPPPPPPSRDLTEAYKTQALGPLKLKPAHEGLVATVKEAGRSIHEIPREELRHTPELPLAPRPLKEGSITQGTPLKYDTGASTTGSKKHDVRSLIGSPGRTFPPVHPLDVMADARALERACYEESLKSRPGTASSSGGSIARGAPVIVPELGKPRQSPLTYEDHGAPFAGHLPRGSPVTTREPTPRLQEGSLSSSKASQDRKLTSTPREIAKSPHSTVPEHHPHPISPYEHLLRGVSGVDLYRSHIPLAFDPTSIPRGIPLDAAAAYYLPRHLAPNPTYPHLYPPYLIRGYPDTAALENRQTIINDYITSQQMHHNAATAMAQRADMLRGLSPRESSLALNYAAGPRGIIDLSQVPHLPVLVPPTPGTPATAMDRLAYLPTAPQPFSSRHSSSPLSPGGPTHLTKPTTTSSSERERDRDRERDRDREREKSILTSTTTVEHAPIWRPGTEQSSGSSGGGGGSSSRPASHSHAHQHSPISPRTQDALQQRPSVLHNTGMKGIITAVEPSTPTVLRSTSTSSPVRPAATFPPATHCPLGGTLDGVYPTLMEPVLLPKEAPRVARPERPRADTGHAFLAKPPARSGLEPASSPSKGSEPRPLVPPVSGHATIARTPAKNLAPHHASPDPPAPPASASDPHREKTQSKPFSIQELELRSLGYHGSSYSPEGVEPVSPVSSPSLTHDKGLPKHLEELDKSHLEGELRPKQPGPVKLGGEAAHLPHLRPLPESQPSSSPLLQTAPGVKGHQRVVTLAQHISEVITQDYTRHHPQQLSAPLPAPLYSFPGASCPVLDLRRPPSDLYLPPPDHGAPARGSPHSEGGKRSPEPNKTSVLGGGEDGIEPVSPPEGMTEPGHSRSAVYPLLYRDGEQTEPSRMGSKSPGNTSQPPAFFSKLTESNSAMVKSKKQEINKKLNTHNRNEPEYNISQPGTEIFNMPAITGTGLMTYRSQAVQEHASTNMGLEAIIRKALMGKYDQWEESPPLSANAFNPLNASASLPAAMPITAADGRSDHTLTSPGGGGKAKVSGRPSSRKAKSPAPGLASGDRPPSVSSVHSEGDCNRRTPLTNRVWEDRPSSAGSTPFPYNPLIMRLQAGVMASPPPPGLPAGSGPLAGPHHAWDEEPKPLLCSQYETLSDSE
Caspase-7, sequence (P55210 24-198 limits assumed): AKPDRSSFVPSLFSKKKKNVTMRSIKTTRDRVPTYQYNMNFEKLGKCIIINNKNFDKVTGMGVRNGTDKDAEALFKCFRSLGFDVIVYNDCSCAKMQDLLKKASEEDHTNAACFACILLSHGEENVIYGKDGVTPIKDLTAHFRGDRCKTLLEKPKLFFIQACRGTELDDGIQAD
Caspase-7, sequence (P55210 207-303 limits assumed): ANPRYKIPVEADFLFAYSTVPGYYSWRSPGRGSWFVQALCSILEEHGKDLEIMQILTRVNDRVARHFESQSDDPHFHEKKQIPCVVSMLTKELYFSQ

## CN1CCN(C2=C(Cl)C(=O)N(c3cc(Cl)cc(Cl)c3)C2=O)CC1
[1]
  IC50: 1.66 µM (active)
[2]
  IC50: 2.44 µM (active)
[3]
  IC50: > 100 µM (not active)

## O=C1NCCc2c1[nH]c1c(Cl)ccc(Cl)c21
[4]
  IC50: 10.2 µM (not active)

## CC(=NNC(=O)c1ccc(O)cc1)c1ccc2c(c1)Nc1ccccc1S2
[5]
  IC50: 0.382 µM (active)

## Cc1ccc(NC(=O)C2CC2c2ccccc2)c([N+](=O)[O-])c1 (stereo unspecified)
[6]
  EC50: 11.4 µM (active)

## CS(=O)(=O)c1nc(S(=O)(=O)c2ccc(Cl)cc2)c(N2CCC3(CC2)OCCO3)s1
[7]
  EC50: 0.71 µM (active)
[8]
  EC50: > 120 µM (not active)
[9]
  EC50: > 12 µM (not active)
[10]
  EC50: < 0.1 µM (active)
[11]
  EC50: > 12 µM (not active)

## COc1ccc(NC(=O)/C(=C/c2cccnc2)NC(=O)c2cccs2)cc1
[12]
  IC50: > 100 µM (inactive)
[13]
  IC50: > 100 µM (not active)

## Cc1cccc(NC(=O)CNC(=O)c2cccc(-n3cccc3)c2)c1C
[14]
  IC50: > 109 µM (not active)
[15]
  AC50: 1.55 µM (active)
[16]
  IC50: 8.77 µM (active)
[17]
  AC50: > 70 µM (inactive)
[18]
  AC50: > 70 µM (inactive)
[19]
  IC50: 3.97 µM (active)

## COc1cccc(-c2csc3nnc(SCC(=O)c4ccc(NC(C)=O)cc4)n23)c1
[20]
  IC50: 6.73 µM (active)
[21]
  IC50: > 66.6 µM (inactive)
[22]
  IC50: 10.6 µM (active)
[23]
  IC50: 4.9 µM (active)

## CN(C)CCNc1c2c(c(C#N)c3nc4ccccc4n13)CCCC2
[24]
  EC50: < 0.1 µM (active)
[25]
  EC50: > 60 µM (not active)
[26]
  IC50: 20.9 µM (active)
[27]
  EC50: 0.11 µM (active)

## c1ccc2c(c1)CSc1sccc1C2=C1CCNCC1
[28]
  IC50: 1.71 µM (active)

## O=c1c2c3c(sc2n2cnnc2n1Cc1ccccc1)CN(Cc1ccccc1)CC3
[29]
  EC50: 11.6 µM (active)
[30]
  EC50: 12.9 µM (active)

## COCCNC(=O)CN(C)CC(=O)c1cc(C)n(Cc2ccccc2)c1C
[31]
  EC50: > 30 µM (not active)

## Sc1nnc(-c2ccncc2)n1/N=C/c1cn(-c2ccccc2)nc1-c1ccccc1
[32]
  EC50: > 29.9 µM (not active)

## CN1CCN(CCCN2c3ccccc3Sc3ccc(Cl)cc32)CC1 [PROCHLORPERAZINE]
[33]
  IC50: 3.77 µM (active)
[34]
  IC50: 19.1 µM (active)
[35]
  AC50: 4.93 µM (active)
[36]
  CC50: 29.4 µM (active)
